Reference: patent US20240043442A1, “SELECTIVE ESTROGEN RECEPTOR DEGRADERS AND USES THEREOF” (InventisBio LLC, priority 2016, published 2024)
Where two headings read alike, the source gives them in different places.

Experiments:
[1] = system: breast cancer cell line MCF-7; test: MCF-7 cell growth study (celltiter-glo luminescent viability assay); format: cell-based, human; settings: MCF-7 cells, 6 days incubation, read-out: IC50 (nM), cell growth inhibition;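 further: viability read by luminescence after compound exposure, relative to DMSO vehicle-treated wells on the same plate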
Description: Compound activity was analyzed using celltiter-glo luminescent viability assay (Promega #G7572) in breast cancer cell line MCF-7. Cells grown in log phase are trypsinized and seeded into a 96-well cell culture plate at a density of 2×10^3 per well and incubated overnight at 37° C. with 5% CO2 in humidified culture chamber. The next day, compounds were prepared in 100% DMSO and were serially diluted and added into cells in the following final concentrations: 316, 100, 31.6, 10, 3.16, 1, 0.32, 0.1, 0.03, 0.01, 0.003 and 0.001 nM. As a control, same volume and concentration of DMSO vehicle control solution was added to the control wells in each plate. The cells were incubated with compounds at 37° C. culture chamber for 6 days. Promega's celltiter-glo kit was used to analyze the cell viability, according to manufacture's instruction. Briefly, fifty microliter of celltiter-glo reagent was added to each well, plate (covered with aluminum foil) was gently vibrated for 10 min to induce cell lysis at room temperature. Luminescence was measured using a SPECTRAmax i3 reader.

[2] = system: pooled human hepatocytes; test: Human hepatocyte clearance study; format: in vitro ADME; settings: for Human Hepatocyte Remaining Percentage @ 120 min (%): human hepatocytes 0.5x10^6 viable cells/mL; for Human In vitro Clint (μL/min/10^6 cells) / Human In vitro T1/2 / Human Scale-up Clint: human hepatocytes; for Human Scale-up Clint: scaling factor 2544.3
Description: (§1) The in vitro hepatocyte clearance of compound described here was studied using pooled human hepatocytes purchased from BioreclamationlVT (Westbury, NY, Cat #X008001, Lot #TQJ). Assay was conducted according to manufacture's instruction. Briefly, mM tock solutions of test compound and positive control (Verapamil) were prepared in 100% DMSO. Thawing media (50 mL) used in the study consists of: 31 mL Williams E medium (GIBCO Cat #12551-032); 15 mL isotonic percoll (GE Healthcare Cat #17-0891-09); 500 uL 100×GlutaMax (GIBCO Cat #35050); 750 uL HEPES (GIBCO Cat #15630-080); 2.5 mL FBS (Corning Cat #35-076-CVR); 50 uL human insulin (GIBCO Cat #12585-014) and 5 uL dexamethasone (NICPBP). Incubation media is made of Williams E medium supplemented with 1×GlutaMax. Thawing medium and supplement incubation medium (serum-free) were placed in a 37° C. water bath for at least 15 minutes prior to use. Compound stock solutions were diluted to 100 μM by combining 198 μt of 50% acetonitrile/50% water and 2 μL of 10 mM stock solution. Verapamil was use as positive control in the assay. Vials of cryopreserved hepatocytes were removed from storage and thawed in a 37° C. water bath with gentle shaking. Contents of the vial were poured into the 50 mL thawing medium conical tube. Vials were centrifuged at 100 g for 10 minutes at room temperature. Thawing medium was aspirated and hepatocytes were re-suspended with serum-free incubation medium to yield ˜1.5×10^6 cells/mL. Hepatocyte viability and density were counted using a Trypan Blue exclusion, and then cells were diluted with serum-free incubation medium to a working cell density of 0.5×10^6 viable cells/mL. Then, a portion of the hepatocytes at 0.5×10^6 viable cells/mL was boiled for 5 min prior to adding to the plate as negative control to eliminate the enzymatic activity so that little or no substrate turnover should be observed. The boiled hepatocytes were used to prepare negative samples. Aliquots of 198 μL hepatocytes were dispensed into each well of a 96-well non-coated plate. The plate was placed in the incubator on an orbital shaker at 500 rpm for approximately 10 minutes. Aliquots of 2 μL of the 100 μM test compound or positive control were added into respective wells of the non-coated 96-well plate to start the reaction. This assay was performed in duplicate. The plate was incubated in the incubator on an orbital shaker at 500 rpm for the designed time points. Twenty-five microliter of contents were transferred and mixed with 6 volumes (150 μL) of cold acetonitrile with IS (200 nM imipramine, 200 nM labetalol and 200 nM diclofenac) to terminate the reaction at time points of 0, 15, 30, 60, 90 and 120 minutes. Samples were centrifuged at 3,220 g for 25 minutes and aliquots of 150 μL of the supernatants was used for LC-MS/MS analysis. For data analysis, all calculations were carried out using Microsoft Excel. Peak areas were determined from extracted ion chromatograms. The in vitro half-life (t1/2) of parent compound was determined by regression analysis of the percent parent disappearance vs. time curve. The in vitro half-life (in vitro t1/2) was determined from the slope value: in vitro t1/2=0.693/k. […] Scaling factors for in vivo intrinsic clearance prediction using human hepatocytes are listed as: liver weight (g liver/kg body weight): 25.7; hepatocyte concentration (10^6 cells/g liver): 99; scaling factor: 2544.3.

[3] = Human hepatocyte clearance study; format: in vitro ADME; settings: pooled cryopreserved human hepatocytes (suspension); for hepatocyte CLint at 1 µM / half-life at 1 µM: human; for hepatocyte CLint at 1 µM: read-out: Human In vitro Clint (μL/min/10^6 cells); for half-life at 1 µM: read-out: Human In vitro T1/2; for CLint scaled at 1 µM: human hepatocytes, scaling factor 2544.3, read-out: Human Scale-up Clint
Description: as §1

[4] = biological target: ER (Homo sapiens (Human), UniProt P03372); test: MCF-7 ER degradation assay (high content imaging); format: cell-based; settings: MCF-7 cells, 1 nM compound, DMSO control as baseline; for MCF7 ER Degradation at 4 hr (%): 4 hours treatment; for MCF7 ER Degradation at 24 hr (%): 24 hours treatment
Chain of ER (P03372 whole entry): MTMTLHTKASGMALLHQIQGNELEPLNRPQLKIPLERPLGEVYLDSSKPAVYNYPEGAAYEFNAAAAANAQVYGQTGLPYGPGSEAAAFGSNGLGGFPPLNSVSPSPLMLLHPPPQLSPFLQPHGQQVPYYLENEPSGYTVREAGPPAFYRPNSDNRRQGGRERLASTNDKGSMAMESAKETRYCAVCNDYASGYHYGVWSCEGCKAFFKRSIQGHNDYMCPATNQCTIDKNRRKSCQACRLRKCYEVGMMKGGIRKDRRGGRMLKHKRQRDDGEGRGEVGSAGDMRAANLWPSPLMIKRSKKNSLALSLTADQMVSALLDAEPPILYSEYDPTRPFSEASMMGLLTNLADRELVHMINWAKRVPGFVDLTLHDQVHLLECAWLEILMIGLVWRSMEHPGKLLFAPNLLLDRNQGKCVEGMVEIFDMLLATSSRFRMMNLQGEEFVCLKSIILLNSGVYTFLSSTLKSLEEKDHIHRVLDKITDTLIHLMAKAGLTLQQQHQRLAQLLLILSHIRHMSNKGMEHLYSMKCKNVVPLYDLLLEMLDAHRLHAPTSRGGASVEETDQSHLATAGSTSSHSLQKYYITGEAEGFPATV
Description: The level of ER degradation by SERD described in this patent was analyzed by cell based high content imaging method. […] Then, 1 μL of compound solution (in DMSO) was added to the cells to make a final concentration of 1 nM per each well of treated cells. DMSO at the same final concentration (%) per each well was used to serve as negative control on each plate. After 4 hours or 24 hours of treatment at 37° C. with 5% CO2, the cells were fixed and permeabilized. Media from each well was aspirated and cells were gently washed with 1×PBS for 5 minutes and the wash procedure was repeated 3 times. Cells was then fixed with 4% formaldehyde freshly made in 1×PBS at room temperature for 20 minutes, followed by gentle washing with 1×PBS, 3 times for 5 minute each. The assay plate was incubated with 200 μl of 1×PBS containing 0.2% Triton-X100 for 5 minutes at room temperature, cells were then washed again with 1×PBS 3 times for 5 minutes each. After this, cells were incubated with the blocking buffer (1×PBS with 5% BSA) at room temperature for 1 hour. For immunostaining, blocking buffer was removed and primary anti-ER antibody (ER1D5, Santa Cruz) diluted in blocking buffer (1:400) was added to each well and cells were incubated overnight at 4° C. The next day, cells were washed with 1×PBS for 3 times with 5 minute each. […] Cells were washed with 1×PBS for 3 times with 5 minute each time. Cells were incubated with DAPI (Beyotime; 1 μg/ml) for 10 minutes and washed with 1×PBS for 3 times with 5 minute each time. […] SERD induced ER degradation in the MCF-7 cells were measured using DMSO negative control as the baseline.

IC50 ([1]; Homo sapiens, MCF7, 144 h) | IC50 [1] | Structure (SMILES) | further results
0.5 nM |  | C[C@@H]1Cc2c([nH]c3ccccc23)[C@@H](c2c(F)cc(/C=C/C(=O)O)cc2Cl)N1CC(C)(F)F [Compound 49] | 
 | > 100 nM | CCC1Cc2c([nH]c3ccccc23)C(c2c(F)cc(/C=C/C(=O)O)cc2F)N1CC(C)(C)F (single isomer, unassigned) [Compound 40B] | 
1.9 nM |  | CC1Cc2c([nH]c3ncccc23)C(c2c(F)cc(/C=C/C(=O)O)cc2F)N1CC(C)(C)F (stereo not shown) [Compound 32A] | 
0.9 nM |  | C[C@@H]1Cc2c([nH]c3ccccc23)[C@@H](c2c(F)cc(/C=C/C(=O)O)cc2F)N1CC(C)(F)F [Compound 29] | Human Hepatocyte Remaining Percentage @ 120 min (%) [2]: 83%; hepatocyte CLint at 1 µM [3]: 2.4 µL/min/1e6 cells; half-life at 1 µM [3]: 9.52 h; CLint scaled at 1 µM [3]: 6.2 mL/min/kg
 | 0.9 nM | CCC1Cc2c([nH]c3ccccc23)C(c2c(F)cc(/C=C/C(=O)O)cc2F)N1CC(C)(C)F (single isomer, unassigned) [Compound 40A] | 
0.4 nM |  | CC(C)(F)CN1C(c2c(F)cc(/C=C/C(=O)O)cc2F)c2[nH]c3ccccc3c2CC1C(F)(F)F (stereo not shown) [Compound 31A] | 
1 nM |  | C[C@@H]1Cc2c([nH]c3ccccc23)[C@@H](c2c(F)cc(/C=C/C(=O)O)cc2F)N1CC1(C)CC1 [Compound 30] | 
16 nM |  | CC1Cc2c([nH]c3cc(O)ccc23)C(c2c(F)cc(/C=C/C(=O)O)cc2F)N1CC(C)(C)F (stereo not shown) [Compound 36] | 
1.2 nM |  | CC1Cc2c([nH]c3ccc(F)cc23)C(c2c(F)cc(/C=C/C(=O)O)cc2F)N1CC(C)(F)F (stereo not shown) [Compound 33A] | 
4.7 nM |  | CC1Cc2c(sc3ccccc23)C(c2c(F)cc(/C=C/C(=O)O)cc2F)N1CC(C)(C)F (stereo not shown) [Compound 48A] | 
 | 1.9 nM | CC1Cc2c([nH]c3ccc(Cl)cc23)C(c2c(F)cc(/C=C/C(=O)O)cc2F)N1CC(C)(C)F (single isomer, unassigned) [Compound 42A] | 
2.5 nM |  | CC1Cc2c([nH]c3cc(F)ccc23)C(c2c(F)cc(/C=C/C(=O)O)cc2F)N1CC(C)(F)F (stereo not shown) [Compound 35A] | 
0.8 nM |  | CC1Cc2c([nH]c3cc(Cl)ccc23)C(c2c(F)cc(/C=C/C(=O)O)cc2F)N1CC(C)(C)F (stereo not shown) [Compound 43B] | 
2.6 nM |  | CC(C)CN1C(C)Cc2c([nH]c3ccc(F)cc23)C1c1c(F)cc(/C=C/C(=O)O)cc1F (stereo not shown) [Compound 39A] | 
7.9 nM |  | CC1Cc2c(oc3ccccc23)C(c2c(F)cc(/C=C/C(=O)O)cc2F)N1CC(C)(F)F (stereo not shown) [Compound 44A] | 
8.9 nM |  | CC1Cc2c(oc3ccccc23)C(c2c(Cl)cc(/C=C/C(=O)O)cc2Cl)N1CC(C)(C)F (stereo not shown) [Compound 45] | 
2.9 nM |  | COc1ccc2[nH]c3c(c2c1)CC(C)N(CC(C)(C)F)C3c1c(F)cc(/C=C/C(=O)O)cc1F (stereo not shown) [Compound 37A] | 
 | > 100 nM | CC1Cc2c([nH]c3ccc(Cl)cc23)C(c2c(F)cc(/C=C/C(=O)O)cc2F)N1CC(C)(C)F (single isomer, unassigned) [Compound 42B] | 

The remaining lines, values behind:

Structure (SMILES) | IC50 ([1]; Homo sapiens, MCF7, 144 h) | IC50 [1] | further results
C[C@@H]1Cc2c([nH]c3ccccc23)[C@@H](c2c(Cl)cc(OCCN3CC(CF)C3)cc2Cl)N1CC(C)(C)F [Compound 9] | 3.1 nM |  | 
C[C@@H]1Cc2c([nH]c3ccccc23)[C@@H](c2c(F)cc(OCCN3CC(CF)C3)cc2Cl)N1CC(C)(C)F [Compound 11] | 0.4 nM |  | Human Hepatocyte Remaining Percentage @ 120 min (%) [2]: 83%; hepatocyte CLint at 1 µM [3]: 2 µL/min/1e6 cells; half-life at 1 µM [3]: 11.1 h; CLint scaled at 1 µM [3]: 5.3 mL/min/kg
CC1Cc2c(oc3ccccc23)C(c2c(F)cc(OCCN3CC(CF)C3)cc2F)N1CC(C)(C)F (stereo not shown) [Compound 17A] |  | 0.8 nM | 
CC1Cc2c([nH]c3cc(F)ccc23)C(c2c(F)cc(/C=C/C(=O)O)cc2F)N1CC(C)(C)F (stereo not shown) [Compound 34A] |  |  | MCF7 ER Degradation at 4 hr (%) [4]: 21%; MCF7 ER Degradation at 24 hr (%) [4]: 20%
C[C@@H]1Cc2c([nH]c3ccccc23)[C@@H](c2c(F)cc(/C=C/C(=O)O)cc2F)N1CC1(F)CC1 [Compound 24] |  | 1.9 nM | 
CC1Cc2c([nH]c3ccc(F)cc23)C(c2c(Cl)cc(/C=C/C(=O)O)cc2Cl)N1CC(C)(F)F (stereo not shown) [Compound 28] |  | 1.3 nM | 
CC1Cc2c([nH]c3ccc(F)cc23)C(c2c(Cl)cc(OCCN3CC(CF)C3)cc2Cl)N1CC(C)(C)F (stereo not shown) [Compound 14B] | 2.6 nM |  | 
COc1ccc2c3c([nH]c2c1)C(c1c(F)cc(/C=C/C(=O)O)cc1F)N(CC(C)(C)F)C(C)C3 (stereo not shown) [Compound 22A] |  | 2.6 nM | 
CC1Cc2c(oc3ccccc23)C(c2c(Cl)cc(OCCN3CC(CF)C3)cc2Cl)N1CC(C)(C)F (stereo not shown) [Compound 18] | 8.9 nM |  | 
C[C@@H]1Cc2c([nH]c3ccccc23)[C@@H](c2c(Cl)cc(OCCN3CC(CF)C3)cc2Cl)N1CC(C)(F)F [Compound 10] | 3.2 nM |  | 
CC1Cc2c([nH]c3ccc(F)cc23)C(c2c(F)cc(OCCN3CC(CF)C3)cc2F)N1CC(C)(C)F (stereo not shown) [Compound 13A] |  | 0.5 nM | 
C[C@@H]1Cc2c([nH]c3ccccc23)[C@@H](c2c(F)cc(OCCN3CCCCC3)cc2F)N1CC(C)(F)F [Compound 3] | 0.6 nM |  | 
CC1Cc2c([nH]c3ccc(F)cc23)C(c2c(F)cc(/C=C/C(=O)O)cc2F)N1CC(C)(C)F (stereo not shown) [Compound 46A] |  |  | MCF7 ER Degradation at 4 hr (%) [4]: 25%; MCF7 ER Degradation at 24 hr (%) [4]: 20%
C[C@@H]1Cc2c([nH]c3ccccc23)[C@@H](c2c(F)cc(OCCN3CCCCCC3)cc2F)N1CC(C)(F)F [Compound 4] | 0.9 nM |  | 
C[C@@H]1Cc2c([nH]c3ccccc23)[C@@H](c2c(F)cc(OCCN3CC(CF)C3)cc2F)N1CC(C)(F)F [Compound 1] |  | 0.3 nM | Human In vitro Clint (μL/min/10^6 cells) [2]: 1.6 μL/min/10^6 cells; Human In vitro T1/2 [2]: 14.2 h; Human Hepatocyte Remaining Percentage @ 120 min (%) [2]: 88%; Human Scale-up Clint [2]: 4.1 mL/min/kg
C[C@@H]1Cc2c([nH]c3ccccc23)[C@@H](c2c(F)cc(OCCN3CCCC3)cc2F)N1CC(C)(F)F [Compound 2] | 0.9 nM |  | 
CC1Cc2c([nH]c3ccc(O)cc23)C(c2c(F)cc(/C=C/C(=O)O)cc2F)N1CC(C)(C)F (stereo not shown) [Compound 23] |  | 4.2 nM | 
COc1ccc2c3c([nH]c2c1)C(c1c(F)cc(OCCN2CC(CF)C2)cc1F)N(CC(C)(C)F)C(C)C3 (stereo not shown) [Compound 15A] | 1.8 nM |  | 
C[C@@H]1Cc2c([nH]c3ccccc23)[C@@H](c2c(F)cc(OCCN3CCCCCC3)cc2F)N1CC(C)(C)F [Compound 8] | 1 nM |  | 
CC1Cc2c([nH]c3ncccc23)C(c2c(F)cc(OCCN3CC(CF)C3)cc2F)N1CC(C)(F)F (stereo not shown) [Compound 19A] | 3.1 nM |  | 
C[C@@H]1Cc2c([nH]c3ccccc23)[C@@H](c2c(F)cc(/C=C/C(=O)O)cc2Cl)N1CC(C)(C)F [Compound 20] |  | 0.3 nM | MCF7 ER Degradation at 4 hr (%) [4]: 25%; MCF7 ER Degradation at 24 hr (%) [4]: 21%; Human In vitro Clint (μL/min/10^6 cells) [2]: 5.6 μL/min/10^6 cells; Human In vitro T1/2 [2]: 4.1 h; Human Hepatocyte Remaining Percentage @ 120 min (%) [2]: 70%; Human Scale-up Clint [2]: 14 mL/min/kg
CC(C)(F)CN1C(c2c(F)cc(OCCN3CC(CF)C3)cc2F)c2[nH]c3ccccc3c2CC1C(F)(F)F (stereo not shown) [Compound 16A] |  | 0.6 nM | 
CC1Cc2c([nH]c3ccc(F)cc23)C(c2c(Cl)cc(/C=C/C(=O)O)cc2Cl)N1CC(C)(C)F (stereo not shown) [Compound 27B] | 0.7 nM |  | 
